Assay [1] deals with T1, Interleukin-1 receptor-associated kinase 3 (Homo sapiens, UniProt Q9Y616).
T1 sequence (Q9Y616 whole entry): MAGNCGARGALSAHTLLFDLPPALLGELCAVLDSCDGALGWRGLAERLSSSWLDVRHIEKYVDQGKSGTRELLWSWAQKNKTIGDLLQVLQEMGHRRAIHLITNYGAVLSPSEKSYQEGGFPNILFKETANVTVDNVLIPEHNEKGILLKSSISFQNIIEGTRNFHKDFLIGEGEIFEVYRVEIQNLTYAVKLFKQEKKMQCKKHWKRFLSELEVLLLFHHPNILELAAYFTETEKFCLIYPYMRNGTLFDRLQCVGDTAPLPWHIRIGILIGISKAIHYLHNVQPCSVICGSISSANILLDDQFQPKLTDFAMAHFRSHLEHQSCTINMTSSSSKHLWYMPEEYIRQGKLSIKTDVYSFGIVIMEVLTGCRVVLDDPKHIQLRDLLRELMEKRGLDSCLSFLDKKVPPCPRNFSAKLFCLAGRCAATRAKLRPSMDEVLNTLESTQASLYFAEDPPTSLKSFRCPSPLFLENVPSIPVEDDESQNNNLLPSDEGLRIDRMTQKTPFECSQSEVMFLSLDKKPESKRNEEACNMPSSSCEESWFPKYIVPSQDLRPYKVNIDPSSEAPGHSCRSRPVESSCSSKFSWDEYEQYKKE

The target of assay [2] is T2, Mitogen-activated protein kinase kinase kinase kinase 3 (Homo sapiens, UniProt Q8IVH8).
T2 sequence (Q8IVH8 whole entry): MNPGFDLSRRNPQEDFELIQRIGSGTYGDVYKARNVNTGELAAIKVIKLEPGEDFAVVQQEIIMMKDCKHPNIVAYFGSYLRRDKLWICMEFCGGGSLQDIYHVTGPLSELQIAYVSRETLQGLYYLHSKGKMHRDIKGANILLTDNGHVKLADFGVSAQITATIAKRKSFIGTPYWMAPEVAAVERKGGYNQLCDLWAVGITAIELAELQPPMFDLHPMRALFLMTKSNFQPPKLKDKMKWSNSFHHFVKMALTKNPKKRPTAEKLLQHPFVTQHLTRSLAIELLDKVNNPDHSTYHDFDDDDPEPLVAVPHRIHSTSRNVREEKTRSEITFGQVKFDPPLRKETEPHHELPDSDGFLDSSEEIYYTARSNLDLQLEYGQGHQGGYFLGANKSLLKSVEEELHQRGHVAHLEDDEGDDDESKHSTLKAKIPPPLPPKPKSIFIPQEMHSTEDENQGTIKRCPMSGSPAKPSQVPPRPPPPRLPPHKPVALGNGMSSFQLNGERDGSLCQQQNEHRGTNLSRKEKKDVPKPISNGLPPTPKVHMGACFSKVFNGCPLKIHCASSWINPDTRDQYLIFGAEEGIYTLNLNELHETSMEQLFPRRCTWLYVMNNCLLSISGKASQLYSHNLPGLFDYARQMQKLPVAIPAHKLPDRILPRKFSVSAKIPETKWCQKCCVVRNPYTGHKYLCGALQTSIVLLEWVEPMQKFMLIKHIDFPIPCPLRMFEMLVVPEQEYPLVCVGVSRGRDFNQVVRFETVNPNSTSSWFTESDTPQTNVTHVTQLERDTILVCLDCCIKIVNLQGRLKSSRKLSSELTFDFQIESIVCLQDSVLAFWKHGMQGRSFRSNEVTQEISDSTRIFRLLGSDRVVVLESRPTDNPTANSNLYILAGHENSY

Assay [3] concerns the target T3, Serine/threonine-protein kinase Nek1 (Homo sapiens, UniProt Q96PY6).
T3 sequence (Q96PY6 whole entry): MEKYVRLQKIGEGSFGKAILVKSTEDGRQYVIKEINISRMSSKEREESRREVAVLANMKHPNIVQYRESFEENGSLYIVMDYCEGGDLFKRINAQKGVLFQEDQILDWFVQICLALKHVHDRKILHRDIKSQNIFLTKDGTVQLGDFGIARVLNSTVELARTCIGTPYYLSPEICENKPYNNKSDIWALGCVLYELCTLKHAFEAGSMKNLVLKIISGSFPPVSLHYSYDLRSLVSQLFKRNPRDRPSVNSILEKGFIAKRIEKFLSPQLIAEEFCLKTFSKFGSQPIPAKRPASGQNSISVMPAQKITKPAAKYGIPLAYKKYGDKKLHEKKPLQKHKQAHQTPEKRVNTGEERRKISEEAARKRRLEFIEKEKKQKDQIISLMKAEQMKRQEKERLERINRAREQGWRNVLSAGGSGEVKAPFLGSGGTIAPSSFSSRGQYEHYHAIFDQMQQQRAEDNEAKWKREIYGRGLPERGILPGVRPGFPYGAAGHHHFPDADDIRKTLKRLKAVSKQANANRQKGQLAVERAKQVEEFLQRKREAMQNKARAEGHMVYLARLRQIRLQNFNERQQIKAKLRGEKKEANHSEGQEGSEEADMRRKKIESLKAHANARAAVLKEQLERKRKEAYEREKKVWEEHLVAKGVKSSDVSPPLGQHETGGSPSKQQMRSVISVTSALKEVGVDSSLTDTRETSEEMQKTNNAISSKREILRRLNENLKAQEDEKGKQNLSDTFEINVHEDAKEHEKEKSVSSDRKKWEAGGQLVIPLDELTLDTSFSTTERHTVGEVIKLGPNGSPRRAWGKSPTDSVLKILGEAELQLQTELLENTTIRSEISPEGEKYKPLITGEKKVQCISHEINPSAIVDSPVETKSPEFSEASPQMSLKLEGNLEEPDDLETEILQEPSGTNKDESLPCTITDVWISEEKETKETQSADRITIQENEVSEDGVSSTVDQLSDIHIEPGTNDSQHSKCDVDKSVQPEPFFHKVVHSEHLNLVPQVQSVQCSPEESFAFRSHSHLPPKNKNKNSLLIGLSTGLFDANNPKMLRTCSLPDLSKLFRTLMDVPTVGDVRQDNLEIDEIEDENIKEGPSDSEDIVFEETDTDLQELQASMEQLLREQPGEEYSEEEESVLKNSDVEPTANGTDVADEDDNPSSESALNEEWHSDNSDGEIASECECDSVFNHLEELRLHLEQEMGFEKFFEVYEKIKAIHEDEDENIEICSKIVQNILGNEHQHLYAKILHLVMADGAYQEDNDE

In assay [4] the target is T4, Ras-related protein Rab-10 (Homo sapiens, UniProt P61026).
T4 sequence (P61026 whole entry): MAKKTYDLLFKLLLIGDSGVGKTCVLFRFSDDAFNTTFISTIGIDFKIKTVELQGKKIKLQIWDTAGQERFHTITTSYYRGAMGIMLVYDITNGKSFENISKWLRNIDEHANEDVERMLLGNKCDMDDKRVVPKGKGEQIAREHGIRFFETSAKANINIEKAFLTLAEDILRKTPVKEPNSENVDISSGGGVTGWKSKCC

Counter-ions that a name gives are not always drawn. The source made the active and inactive calls. A value given as a limit tells only on which side of the number the result lay.
Further: in the data inactive means no Kd found up to 30 µM.

Broadly, the Kd is the free concentration of one partner at which half of the binding sites on the other are occupied at equilibrium, for simple one-to-one binding. For `COc1cc([C@@H]2c3cc4c(cc3[C@H](O)[C@H]3COC(=O)[C@@H]23)OCO4)cc(OC)c1OC` [AXL-1717], the Kd in assay [1], in assay [2], in assay [3] and in assay [4] was > 30 µM (inactive) in each case.
With `NC(=O)Nc1cc(-c2cccc(F)c2)sc1C(=O)N[C@H]1CCCNC1` [AZD-7762], the Kd is > 30 µM (inactive) in assay [1], 0.363 µM (active) in assay [2], > 30 µM (inactive) in assay [3] and > 30 µM (inactive) in assay [4].
`Cc1cc(C(=O)NOCCO)c(Nc2ccc(I)cc2F)n(C)c1=O` [AZD-8330]: the Kd in assay [1], in assay [2], in assay [3] and in assay [4] was > 30 µM (inactive) each time.
Regarding `Cn1cnc2c(F)c(Nc3ccc(Br)cc3F)c(C(=O)NOCCO)cc21` [BINIMETINIB], the Kd in assay [1], in assay [2], in assay [3] and in assay [4] was > 30 µM (inactive) in each case.
Turning to `CCn1c(C(=O)N(C2CC2)C2CC2)cc2c3c(ncn3C)c(Nc3cc(C)n(C)n3)nc21` [BMS-911543], the Kd in assay [1], in assay [2], in assay [3] and in assay [4] was > 30 µM (inactive) in each case.
Take `COc1cc2ncnc(Oc3cccc(NC(=O)Nc4cc(C(C)(C)C(F)(F)F)on4)c3)c2cc1OC` [CEP-32496]: the Kd in assay [1], in assay [2], in assay [3] and in assay [4] was > 30 µM (inactive) throughout.
Regarding `Cc1cc(Nc2ncc(Cl)c(Nc3ccccc3S(=O)(=O)C(C)C)n2)c(OC(C)C)cc1C1CCNCC1` [CERITINIB], the Kd in assay [1], in assay [2], in assay [3] and in assay [4] was > 30 µM (inactive) each time.
As to `COc1c(OCCCN2CCOCC2)ccc2c1N=C(NC(=O)c1cnc(N)nc1)N1CCN=C21` [COPANLISIB], the Kd in assay [1], in assay [2], in assay [3] and in assay [4] was > 30 µM (inactive) throughout.
With `COCC(=O)NC/C=C/c1ccc2ncnc(Nc3ccc(Oc4ccc(C)nc4)c(C)c3)c2c1` [CP-724714], the Kd in assay [1], in assay [2], in assay [3] and in assay [4] was > 30 µM (inactive) throughout.
As for `C#Cc1cccc(Nc2ncnc3cc(OC)c(OCCCCCCC(=O)NO)cc23)c1` [CUDC-101], the Kd in assay [1], in assay [2], in assay [3] and in assay [4] was > 30 µM (inactive) throughout.
As for `CCS(=O)(=O)N1CCN(c2ccc(Nc3ncc(C(N)=O)c(NC4CC4)n3)cc2)CC1` [Cerdulatinib Hydrochloride], the Kd in assay [1] was > 30 µM (inactive); in assay [2] it was 0.033 µM (active); in assay [3], > 30 µM (inactive); in assay [4] it was > 30 µM (inactive).
`Cc1nc2cc(-n3ncc(C(=O)c4cc5ccccc5[nH]4)c3N)ccc2[nH]1` [FGFR INHIBITOR DEBIO 1347]: the Kd in assay [1], in assay [2], in assay [3] and in assay [4] was > 30 µM (inactive) in each case.
Take `O=C(Nc1nc2cccc(-c3ccc(CN4CCS(=O)(=O)CC4)cc3)n2n1)C1CC1` [FILGOTINIB]: the Kd in assay [1], in assay [2], in assay [3] and in assay [4] was > 30 µM (inactive) each time.
`Cc1cccc(-c2nn3c(c2-c2ccnc4ccc(C(N)=O)cc24)CCC3)n1` [GALUNISERTIB]: the Kd in assay [1], in assay [2], in assay [3] and in assay [4] was > 30 µM (inactive) each time.

The record behind these values is ChEMBL document CHEMBL3991601, “The target landscape of clinical kinase drugs” (Science, 2017).
